In ChEMBL document CHEMBL3526157, “Unique metabolic pathway of [(14)C]lenvatinib after oral administration to male cynomolgus monkey” (Drug Metab Dispos, 2012):

Key:
Cynomolgus monkey [1] = assay: Drug metabolism in cynomolgus monkey treated with 30 mg/kg, po of [14C]lenvatinib administered on day 1, 2 and 4 by radio-LC/MS analysis; type: ADME, organism-based, Macaca fascicularis; design: dose 30 mg/kg, route oral; settings: in vivo
Cynomolgus monkey [2] = assay: Drug retention time in cynomolgus monkey treated with 30 mg/kg, po of [14C]lenvatinib administered on day 1, 2 and 4 by radio-LC/MS analysis; type: ADME, organism-based, Macaca fascicularis; design: dose 30 mg/kg, route oral; settings: in vivo
[3] = Drug metabolism in human liver S9 fraction assessed as decrease of parent compound level at 50 uM up to 120 mins by HPLC analysis in presence of GSH and NADPH; type: ADME, subcellular; settings: s9, 2 h, TDE = time-dependent effect
[4] = Drug metabolism in cynomolgus monkey liver S9 fraction assessed as 5-(3-(6-carbamoyl-7-methoxyquinolin-4-ylthio)-1-(carboxymethylamino)-1-oxopropan-2-ylamino)-[…]-5-oxopentanoic acid level at 50 uM up to 120 mins by HPLC analysis in presence of GSH and absence of NADPH; type: ADME, Macaca fascicularis; settings: s9, 2 h
[5] = Drug metabolism in human liver S9 fraction assessed as decrease of parent compound level at 50 uM up to 120 mins by HPLC analysis in presence of GSH and absence of NADPH; type: ADME, tissue-based; settings: s9, 2 h, TDE = time-dependent effect
[6] = Drug metabolism in cynomolgus monkey liver S9 fraction assessed as 5-(3-(6-carbamoyl-7-methoxyquinolin-4-ylthio)-1-(carboxymethylamino)-1-oxopropan-2-ylamino)-[…]-5-oxopentanoic acid level at 50 uM up to 120 mins by HPLC analysis in presence of GSH and NADPH; type: ADME, subcellular, Macaca fascicularis; settings: s9, 2 h
[7] = Drug metabolism in cynomolgus monkey liver S9 fraction assessed as decrease of parent compound level at 50 uM up to 120 mins by HPLC analysis in presence of GSH and NADPH; type: ADME, subcellular, Macaca fascicularis; settings: s9, 2 h, TDE = time-dependent effect
[8] = Drug metabolism in Sprague-Dawley rat liver S9 fraction assessed as 5-(3-(6-carbamoyl-7-methoxyquinolin-4-ylthio)-1-(carboxymethylamino)-1-oxopropan-2-ylamino)-[…]-5-oxopentanoic acid level at 50 uM up to 60 mins by HPLC analysis in presence of GSH and NADPH; settings: s9, 1 h
[9] = Drug metabolism in Sprague-Dawley rat liver S9 fraction assessed as 5-(3-(6-carbamoyl-7-methoxyquinolin-4-ylthio)-1-(carboxymethylamino)-1-oxopropan-2-ylamino)-[…]-5-oxopentanoic acid level at 50 uM up to 60 mins by HPLC analysis in presence of GSH and absence of NADPH; settings: s9, 1 h
[10] = Drug metabolism in potassium phosphate buffer at pH 7.4 assessed as decrease of parent compound at 50 uM in presence of GSH; type: physicochemical; settings: pH 7.4, 50 µM
[11] = Drug metabolism in potassium phosphate buffer at pH 7.4 assessed as decrease of parent compound at 50 uM in presence of NAC; type: physicochemical; settings: pH 7.4, 50 µM
[12] = Drug metabolism in human liver S9 fraction assessed as 5-(3-(6-carbamoyl-7-methoxyquinolin-4-ylthio)-1-(carboxymethylamino)-1-oxopropan-2-ylamino)-[…]-5-oxopentanoic acid level at 50 uM up to 120 mins by HPLC analysis in presence of GSH and absence of NADPH; type: ADME, tissue-based; settings: s9, 2 h
[13] = Drug metabolism in Sprague-Dawley rat liver S9 fraction assessed as decrease of parent compound level at 50 uM up to 60 mins by HPLC analysis in presence of GSH and absence of NADPH; settings: s9, 1 h, TDE = time-dependent effect
[14] = Drug metabolism in Sprague-Dawley rat liver S9 fraction assessed as decrease of parent compound level at 50 uM up to 120 mins by HPLC analysis in presence of GSH and NADPH; type: ADME, subcellular; settings: s9, 2 h, TDE = time-dependent effect
[15] = Drug metabolism in human liver S9 fraction assessed as 5-(3-(6-carbamoyl-7-methoxyquinolin-4-ylthio)-1-(carboxymethylamino)-1-oxopropan-2-ylamino)-[…]-5-oxopentanoic acid level at 50 uM up to 120 mins by HPLC analysis in presence of GSH and NADPH; type: ADME, subcellular; settings: s9, 2 h
[16] = Drug metabolism in potassium phosphate buffer at pH 7.4 assessed as decrease of parent compound at 50 uM in presence of cysteine; type: physicochemical; settings: pH 7.4, 50 µM
[17] = Drug metabolism in cynomolgus monkey liver S9 fraction assessed as decrease of parent compound level at 50 uM up to 120 mins by HPLC analysis in presence of GSH and absence of NADPH; type: ADME, tissue-based, Macaca fascicularis; settings: s9, 2 h, TDE = time-dependent effect
[18] = Drug metabolism in cynomolgus monkey assessed as 2-(6-carbamoyl-7-methoxyquinolin-4-ylamino)-3-(6-carbamoyl-7-methoxyquinolin-4-ylthio)propanoic acid metabolite level in bile at 30 mg/kg, po administered on day 1, 2 and 4 by radio-LC/MS analysis; type: ADME, organism-based, Macaca fascicularis; design: dose 30 mg/kg, route oral; settings: in vivo
Cynomolgus monkey [19] = assay: Drug metabolism in cynomolgus monkey assessed as 2-(6-carbamoyl-7-methoxyquinolin-4-ylamino)-3-(6-carbamoyl-7-methoxyquinolin-4-ylthio)propanoic acid formation at 30 mg/kg, po administered on day 1, 2 and 4 by radio-LC/MS analysis; type: ADME, organism-based, Macaca fascicularis; design: dose 30 mg/kg, route oral; settings: in vivo
Cynomolgus monkey [20] = assay: Drug metabolism in cynomolgus monkey assessed as 2-(6-carbamoyl-7-methoxyquinolin-4-ylamino)-3-((2-(6-carbamoyl-7-methoxyquinolin-4-ylamino)-3-(carboxymethylamino)-3-oxopropyl)disulfanyl)propanoic acid formation at 30 mg/kg, po administered on day 1, 2 and 4 by radio-LC/MS analysis; type: ADME, organism-based, Macaca fascicularis; design: dose 30 mg/kg, route oral; settings: in vivo
Cynomolgus monkey [21] = assay: Drug metabolism in cynomolgus monkey assessed as 3,3'-disulfanediylbis(2-(6-carbamoyl-7-methoxyquinolin-4-ylamino)propanoic acid) formation at 30 mg/kg, po administered on day 1, 2 and 4 by radio-LC/MS analysis; type: ADME, organism-based, Macaca fascicularis; design: dose 30 mg/kg, route oral; settings: in vivo
Cynomolgus monkey [22] = assay: Drug metabolism in cynomolgus monkey assessed as 2-(6-carbamoyl-7-methoxyquinolin-4-ylthio)acetic acid formation at 30 mg/kg, po administered on day 1, 2 and 4 by radio-LC/MS analysis; type: ADME, organism-based, Macaca fascicularis; design: dose 30 mg/kg, route oral; settings: in vivo
[23] = Drug metabolism in cynomolgus monkey assessed as 2-(6-carbamoyl-7-methoxyquinolin-4-ylamino)-3-(6-carbamoyl-7-methoxyquinolin-4-ylthio)propanoic acid metabolite level in liver at 30 mg/kg, po administered on day 1, 2 and 4 by radio-LC/MS analysis; type: ADME, organism-based, Macaca fascicularis; design: dose 30 mg/kg, route oral; settings: in vivo
Cynomolgus monkey [24] = assay: Drug metabolism in cynomolgus monkey assessed as 5-(3-(6-carbamoyl-7-methoxyquinolin-4-ylthio)-1-(carboxymethylamino)-1-oxopropan-2-ylamino)-[…]-5-oxopentanoic acid formation at 30 mg/kg, po administered on day 1, 2 and 4 by radio-LC/MS analysis; type: ADME, organism-based, Macaca fascicularis; design: dose 30 mg/kg, route oral; settings: in vivo
[25] = Drug metabolism in cynomolgus monkey assessed as 2-(6-carbamoyl-7-methoxyquinolin-4-ylamino)-3-((2-(6-carbamoyl-7-methoxyquinolin-4-ylamino)-3-(carboxymethylamino)-3-oxopropyl)disulfanyl)propanoic acid metabolite level in urine at 30 mg/kg, po administered on day 1, 2 and 4 by radio-LC/MS analysis; type: ADME, organism-based, Macaca fascicularis; design: dose 30 mg/kg, route oral; settings: in vivo
[26] = Drug metabolism in cynomolgus monkey assessed as 2-(6-carbamoyl-7-methoxyquinolin-4-ylamino)-3-(6-carbamoyl-7-methoxyquinolin-4-ylthio)propanoic acid metabolite level in urine at 30 mg/kg, po administered on day 1, 2 and 4 by radio-LC/MS analysis; type: ADME, organism-based, Macaca fascicularis; design: dose 30 mg/kg, route oral; settings: in vivo
[27] = Drug metabolism in cynomolgus monkey assessed as parent compound level in bile at 30 mg/kg, po administered on day 1, 2 and 4 by radio-LC/MS analysis; type: ADME, organism-based, Macaca fascicularis; design: dose 30 mg/kg, route oral; settings: in vivo
Cynomolgus monkey [28] = assay: Drug metabolism in cynomolgus monkey assessed as parent compound formation at 30 mg/kg, po administered on day 1, 2 and 4 by radio-LC/MS analysis; type: ADME, organism-based, Macaca fascicularis; design: dose 30 mg/kg, route oral; settings: in vivo
[29] = Drug metabolism in cynomolgus monkey assessed as 3,3'-disulfanediylbis(2-(6-carbamoyl-7-methoxyquinolin-4-ylamino)propanoic acid) metabolite level in bile at 30 mg/kg, po administered on day 1, 2 and 4 by radio-LC/MS analysis; type: ADME, organism-based, Macaca fascicularis; design: dose 30 mg/kg, route oral; settings: in vivo
Cynomolgus monkey [30] = assay: Drug metabolism in cynomolgus monkey assessed as 2-(6-carbamoyl-7-methoxyquinolin-4-ylamino)-3-mercaptopropanoic acid formation at 30 mg/kg, po administered on day 1, 2 and 4 by radio-LC/MS analysis; type: ADME, organism-based, Macaca fascicularis; design: dose 30 mg/kg, route oral; settings: in vivo
[31] = Drug excretion in cynomolgus monkey feces assessed as unchanged level of drug at 30 mg/kg, po administered on day 1, 2 and 4 by radio-LC/MS analysis; type: ADME, organism-based, Macaca fascicularis; design: dose 30 mg/kg, route oral; settings: read-out: Drug excretion
[32] = Drug metabolism in cynomolgus monkey assessed as 2-(6-carbamoyl-7-methoxyquinolin-4-ylamino)-3-mercaptopropanoic acid metabolite level in bile at 30 mg/kg, po administered on day 1, 2 and 4 by radio-LC/MS analysis; type: ADME, organism-based, Macaca fascicularis; design: dose 30 mg/kg, route oral; settings: in vivo
[33] = Drug metabolism in cynomolgus monkey assessed as 3,3'-disulfanediylbis(2-(6-carbamoyl-7-methoxyquinolin-4-ylamino)propanoic acid) metabolite level in urine at 30 mg/kg, po administered on day 1, 2 and 4 by radio-LC/MS analysis; type: ADME, organism-based, Macaca fascicularis; design: dose 30 mg/kg, route oral; settings: in vivo
[34] = Drug metabolism in cynomolgus monkey assessed as 5-(3-(6-carbamoyl-7-methoxyquinolin-4-ylthio)-1-(carboxymethylamino)-1-oxopropan-2-ylamino)-[…]-5-oxopentanoic acid metabolite level in liver at 30 mg/kg, po administered on day 1, 2 and 4 by radio-LC/MS analysis; type: ADME, organism-based, Macaca fascicularis; design: dose 30 mg/kg, route oral; settings: in vivo
Plasma = assay: Drug metabolism in cynomolgus monkey assessed as parent compound level in plasma at 30 mg/kg, po administered on day 1, 2 and 4 by radio-LC/MS analysis; type: ADME, organism-based, Macaca fascicularis; design: dose 30 mg/kg, route oral; settings: in vivo
[35] = Drug metabolism in cynomolgus monkey assessed as 2-(6-carbamoyl-7-methoxyquinolin-4-ylamino)-3-mercaptopropanoic acid metabolite level in liver at 30 mg/kg, po administered on day 1, 2 and 4 by radio-LC/MS analysis; type: ADME, organism-based, Macaca fascicularis; design: dose 30 mg/kg, route oral; settings: in vivo
[36] = Drug metabolism in cynomolgus monkey assessed as 2-(6-carbamoyl-7-methoxyquinolin-4-ylthio)acetic acid metabolite level in urine at 30 mg/kg, po administered on day 1, 2 and 4 by radio-LC/MS analysis; type: ADME, organism-based, Macaca fascicularis; design: dose 30 mg/kg, route oral; settings: in vivo
[37] = Drug metabolism in cynomolgus monkey assessed as parent compound level in liver at 30 mg/kg, po administered on day 1, 2 and 4 by radio-LC/MS analysis; type: ADME, organism-based, Macaca fascicularis; design: dose 30 mg/kg, route oral; settings: in vivo

COc1cc2nccc(N[C@@H](CSc3ccnc4cc(OC)c(C(N)=O)cc34)C(=O)O)c2cc1C(N)=O
Drug metabolism (Cynomolgus monkey [1]): metabolite_detected | Retention_time (Cynomolgus monkey [2]): 17.1 min

COc1cc2nccc(Oc3ccc(NC(=O)NC4CC4)c(Cl)c3)c2cc1C(N)=O.CS(=O)(=O)O [LENVATINIB MESYLATE]
Drug metabolism [3]: tde | Drug metabolism [4]: metabolite_detected | Drug metabolism [5]: tde | Drug metabolism [6]: metabolite_detected | Drug metabolism [7]: tde | Drug metabolism [8]: metabolite_detected | Drug metabolism [9]: metabolite_detected | Drug metabolism [10]: metabolite_detected | Drug metabolism [11]: metabolite_detected | Drug metabolism [12]: metabolite_detected | Drug metabolism [13]: tde | Drug metabolism [14]: tde | Retention_time (Cynomolgus monkey [2]): 46.4 min | Drug metabolism [15]: metabolite_detected | Drug metabolism [16]: metabolite_detected | Drug metabolism [17]: tde

COc1cc2nccc(SCC(=O)O)c2cc1C(N)=O
Drug metabolism (Cynomolgus monkey [1]): metabolite_detected | Retention_time (Cynomolgus monkey [2]): 12.2 min

COc1cc2n[14cH]cc(Oc3ccc(NC(=O)NC4CC4)c(Cl)c3)c2cc1C(N)=O.CS(=O)(=O)O
Drug metabolism [18]: metabolite_detected | Drug metabolism (Cynomolgus monkey [19]): metabolite_detected | Drug metabolism (Cynomolgus monkey [20]): metabolite_detected | Drug metabolism (Cynomolgus monkey [21]): metabolite_detected | Drug metabolism (Cynomolgus monkey [22]): metabolite_detected | Drug metabolism [23]: metabolite_detected | Drug metabolism (Cynomolgus monkey [24]): metabolite_detected | Drug metabolism [25]: metabolite_detected | Drug metabolism [26]: metabolite_detected | Drug metabolism [27]: metabolite_detected | Drug metabolism (Cynomolgus monkey [28]): metabolite_detected | Drug metabolism [29]: metabolite_detected | Drug metabolism (Cynomolgus monkey [30]): metabolite_detected | dose excreted [31]: 51% | Drug metabolism [32]: metabolite_detected | Drug metabolism [33]: metabolite_detected | Drug metabolism [34]: metabolite_detected | Drug metabolism (Plasma): metabolite_detected | Drug metabolism [35]: metabolite_detected | Drug metabolism [36]: metabolite_detected | Drug metabolism [37]: metabolite_detected
